Earlier results on 1 compound are cited in patent US20100034838A1, “Transdermal Administration of Active Agents for Systemic Effect” (priority 2005, published 2010).

SMILES strings stand for the structures.

Regarding `CN1CCCC1c1cccnc1` (centres unmarked) [nicotine], where the note is “nicotine patches, approximately 4-6 hours after adhesion of a medicinal patch to the skin”, the “nicotine levels in the blood” value was 10 to 15 ng/mL. The blood nicotine peak entry (smoking a cigarette, approximately 5 minutes after smoking is commenced) was “about 25 ng/ml”.
